We go through seven compounds from ChEMBL document CHEMBL1128855, “Design and synthesis of an antitumor prodrug released by the reaction with sulfhydryl compounds” (Bioorg Med Chem Lett, 1995).

Values after ≈ are worked out from the molar mass of the structure shown.

One assay concerns HeLa. Kind of assay: Cytotoxic activity against HeLa S3 cells. The class given is functional, cell-based. The following applies: Homo sapiens.
Assay [1] has as its system L1210 (1565). Kind of assay: Cytotoxic activity against adriamycin (ADR) resistant L-1210 cell line. The class given is functional, cell-based, Mus musculus.
The nature of assay [2]: Relative resistance value of Adriamycin resistant L-1210/L-1210 parental cell line. The assay is classed as functional.
For assay [3], the system named is L1210 (1565). As to the kind of experiment: Cytotoxic activity against L-1210 parental cell line. The class given is functional, cell-based, Mus musculus.
The subject of assay [4] is L1210 (1565). As to the kind of experiment: cytotoxic activity against adriamycin (ADR) resistant L-1210 cell line. The class given is functional, cell-based, Mus musculus.

`C/C=C/C(=O)OCC1=CCC(C)(C)CC1=O` returned an IC50 in the assay on HeLa of 4.7 µg/mL (≈ 21.1 µM).
On to `CC(=O)OCC1=CCC(C)(C)CC1=O`, for which the IC50 with HeLa turned out to be 23.5 µg/mL (≈ 120 µM).
For the compound `COc1cccc2c1C(=O)c1c(O)c3c(c(O)c1C2=O)C[C@@](O)(C(C)=O)C[C@@H]3OC1CC(NC(=O)OCC2=CCC(C)(C)CC2=O)C(O)C(C)O1` (some centres undefined), the IC50 stood at 0.14 nM ml-1 in the assay with L1210 (1565) [1], 0.0096 µg/mL (≈ 0.0136 µM) with HeLa and 0.038 nM ml-1 in the assay with L1210 (1565) [3]. Besides, the Ratio in assay [2] is given as 3.7.
For `CC1(C)CC=C(CO)C(=O)C1`, the IC50 in the assay with HeLa is over 100 µg/mL.
`CC1(C)CC=C(CI)C(=O)C1` displayed an IC50 with HeLa of 2.3 µg/mL (≈ 8.71 µM).
Regarding `COc1cccc2c1C(=O)c1c(O)c3c(c(O)c1C2=O)C[C@@](O)(C(C)=O)C[C@@H]3O[C@H]1C[C@H](N)[C@H](O)[C@H](C)O1.Cl` [DAUNORUBICIN HYDROCHLORIDE], the IC50 is listed as 0.147 nM ml-1 in the assay on L1210 (1565) [1] and 0.016 nM ml-1 in the assay with L1210 (1565) [3]. The Ratio in assay [2] is 9.2.
For the compound `COc1cccc2c1C(=O)c1c(O)c3c(c(O)c1C2=O)C[C@@](O)(C(=O)CO)C[C@@H]3O[C@H]1C[C@H](N)[C@H](O)[C@H](C)O1` [DOXORUBICIN], the Ratio in assay [2] is reported as 14.1. Further, the IC50 in the assay on L1210 (1565) [4] turned out to be 0.315 nM ml-1; in the assay with L1210 (1565) [3], 0.022 nM ml-1.
